“And” between values parts separate entries of the source, which are not always exact repeats. Equal values may be shown once. “Also recorded” adds a separate entry of the source. Marks after values point to notes of the source that are not given here.
Assays:
Format in all cases: cell-based, human
[1] = test system: DPH2 gene; experiment: PM resistant colony count after DPH2 gene editing; details: DPH2 assay (integr. vs. k.o.); for # of PM resistant colonies (40,000 seeded cells): MCF7, individual samples A-D
Method: (§1) MCF7 cells (Brooks, et al. 1973) were originally obtained from ATCC (subsequently propagated in an in-house cell bank) and maintained in RPMI […] medium supplemented with 10% FCS, 2 mM L-Glutamine and penicillin/streptomycin at 37° C. and 85% humidity. For transfection of plasmids harboring gene-editing modules, 3,000,000 cells were seeded in a 10 cm diameter culture dish and cultivated at 37° C. and humidified 5% CO2. 24 h after seeding, cells were transfected with 20 μg total DNA using JetPEI (Polyplus) according to the manufacturer's protocol but with an N/P ratio of 6:1. Transfection efficiency was determined after 24 h by flow cytometry (FACS Calibur, BD biosciences) of cells that were transfected with a modified eGFP expression plasmid (Zhang, et al. 1996).
(§2) Plasmids encoding CRISPR/Cas9 gene-editing entities (i.e. knock-out and integration systems) against Dph1 (gRNA target sequence: […] (SEQ ID NO: 01) derived from RefSeq: NM_001383) and Dph2 (gRNA target sequence: […] (SEQ ID NO: 02) derived from RefSeq: NM_001039589, NM_001384), and scrambled control (gRNA sequence: […] (SEQ ID NO: 03)) were obtained from OriGene. This system comprises one plasmid expressing a ˜100 nt gRNA under control of a U6 promoter as well as Cas9 nuclease under control of a CMV promoter and a Donor plasmid with a promoter-less GFP/PM expression cassette flanked by homologous arms to the target gene (Dph1 or Dph2). Additional Dph1 gRNA sequence variants of different sizes (OriGene) […]
(§3) MCF7 cells which have all chromosomal copies of DPH1 or DPH2 inactivated are resistant to diphtheria toxin (Stahl, et al. 2015). Thus, occurrence and frequency of toxin resistant cells/colonies upon CRISPR/Cas inflicted gene inactivation provides a measure for efficiency of inactivation of all gene copies. Therefore, MCF/cells were transfected as described in Example 1 with (i) a GFP expression plasmid as transfection control, (ii) the CRISPR/Cas9 Dph1 or Dph2 knock-out/integration system and (iii) knock-out/integration entities containing a scrambled gRNA to determine Cas9 independent integration frequencies. After determination of transfection efficiency, cells were seeded in 6-well plates. For quantification of homozygous knock-out events by DT 20000 cells were seeded and for quantification of integration events by PM or both events 40000 cells were seeded. RPMI medium was exchanged by RPMI medium containing DT or PM or both toxins 3 days after cell seeding. Exchange of medium was repeated every 2-3 days until all dead cells were removed from the plates and actively growing colonies could be detected via microscopic inspection. Thereafter (between day 12 and day 14 after start of toxin exposure), cells were washed 3 times with PBS and subsequently stained with ice cold methylene blue (0.2% in 50% EtOH). Methylene blue solution was subsequently removed and the plates were carefully washed under running water. Finally, cell colonies were counted under the microscope with a 5 mm grid foil.
CRISPR/Cas module for targeted integration contains a puromycin (PM) resistance gene expression cassette without promoter to avoid transient expression. Thus, detection of integration of recombinant sequences into the genome was detected by determining sensitivity of cells towards PM. A concentration of […] PM (which quantitatively eliminates wildtype MCF7 cells) was applied to select MCF7 cells with stably integrated expression cassettes. PM-resistant colonies selected with the same procedure as described above for the DT selection and visualized and quantified (between 12 and 14 days after start of selection) in the same manner as described above for toxin resistant colonies. Number of PM resistant colonies obtained with non-target guide sequences (scrambled gRNA, FIG. 1) reflect the nonspecific integration background. […]

[2] = test system: DPH2 gene; experiment: DT resistant colony count after DPH2 gene editing; details: DPH2 assay (integr. vs. k.o.); for # of DT resistant colonies (40,000 seeded cells): MCF7, individual samples A-D
Method: as §1, §2, §3

[3] = test system: MCF7; experiment: Viability (Promega CTG) assay; details: 1 μM Scr7, 8 μM RS-1, 1 μM+8 μM combined
Method: The RAD51-stimulatory compound 1 (RS-1) was applied to modulate homologous recombination (HR) during gene editing. RS-1 (Sigma Aldrich) was dissolved in DMSO to generate a stock solution of 10 mg/ml, which was diluted in RPMI medium just before application to cells.
The DNA ligase IV inhibitor SCR7 was applied to modulate non-homologous end joining (NHEJ) during gene editing. SCR7 (Sigma) was dissolved in DMSO to generate a stock solution of 10 mg/ml, which was diluted in RPMI medium just before application to cells.

[4] = test system: MCF-7 cells; experiment: PM resistant colony count of MCF-7 exposed to SCR7 and/or RS-1 during SpCas9-mediated DPH1 editing; details: for mean PMr colonies #seeded cells: 80,000: SpCas9 Dph1 gRNA (20 mer); for mean PMr colonies #seeded cells: 80,000 / % PMr relative to DTr colonies: RS-1 8 μM, SCR7 1 μM; for % PMr relative to DTr colonies: SpCas9 Dph1 gRNA
Method: (§4) To evaluate and quantify the influence of DNA repair modulators on efficiency and specificity of gene editing, CRISPR/SpCAS9 and DPH1 targeting 20 mer gRNA was combined with compounds that modulate DNA repair mechanisms. The inhibitor Scr7 was applied either 4 hrs before transfection or 18 hrs after transfection of the gene editing modules until […] after transfection to inhibit DNA ligase IV.
SCR7 (1 μM final conc.) or RS-1 (8 μM final conc.) or SCR7+RS-1 (1 μM+8 μM final conc.) were added to MCF7 cells 4 hrs before transfection of the gene editing modules in the ‘early exposure’ setting. […]
(§5) The system upon which to determine the effects of DNA repair modulators consisted of the CRISPR/SpCas9 modules with DPH1 20 mer gRNA, transfected into MCF7 cells and subjected to subsequent DT and PM selection as described in the previous Examples. Frequencies of DTr, PMr, and double-resistant colonies were recorded to reflect gene inactivation and cassette integration events.

[5] = test system: MCF-7 cells; experiment: DT resistant colony count of MCF-7 exposed to SCR7 and/or RS-1 during SpCas9-mediated DPH1 editing; details: SpCas9 Dph1 gRNA (20 mer); compound added 18 hrs after transfection; RS-1 8 μM, SCR7 1 μM
[6] = test system: MCF-7 cells; experiment: as above; details: for mean DTr colonies #seeded cells: 40,000: SpCas9 Dph1 gRNA (20 mer), RS-1 8 μM, SCR7 1 μM; for mean DTr colonies #seeded cells: 40,000 / gRNA specific DT-r colonies (gRNA-scRNA) / Mean DT resistant colonies (4 × 40.000 seeded cells): compound added 4 hrs before transfection; for Mean DT resistant colonies (4 × 40.000 seeded cells): editing entity SpCas9-scRNA
Method: as §4
SCR7 (1 μM final conc.) or RS-1 (8 μM final conc.) or SCR7+RS-1 (1 μM+8 μM final conc.) were added to MCF7 cells 4 hrs before transfection of the gene editing modules in the ‘early exposure’ setting. For ‘late exposure’ SCR7 (8 µM final conc.) or RS-1 (1 μM final conc.) were added to MCF7 cells 18 hrs after transfection. In both settings, cells were exposed to the modulators until 96 hr after transfection, i.e. ‘early exposure’ consisted of a treatment for a total of 100 hrs, ‘late exposure’ for a total of 78 hrs.
as §5

[7] = listed as Dph2 CRISPR Cas9 gRNA
[8] = compound added 4 hrs before transfection
[9] = compound added 18 hrs after transfection
[10] = compound added 4 hr before transfection
[11] = compound added 18 hr after transfection

20 mer SpCas9 Dph2 gRNA: Plasmids encoding SpCas9 and Dph2 gRNA (target GATGTTTAGCAGCCCTGCCG, SEQ ID NO: 02) plus donor plasmid
# of PM resistant colonies (40,000 seeded cells) (unheaded second sub-column: mean) ([1]; MCF7): 1.5
# of PM resistant colonies (40,000 seeded cells) [1]: 0 (2×) and 1 and 3
# of PM resistant colonies (40,000 seeded cells) [1, 7]: 0 (2×) and 1 and 3
# of DT resistant colonies (40,000 seeded cells) (unheaded second sub-column: mean) ([2]; MCF7): 130
# of DT resistant colonies (40,000 seeded cells) [2]: 162 and 227 (2×) and 215
# of DT resistant colonies (40,000 seeded cells) [2, 7]: 162 and 227 (2×) and 215

O=C(Nc1ccc(Br)cc1)c1ccc(Br)c(S(=O)(=O)NCc2ccccc2)c1 [RS-1, RAD51-stimulatory compound 1]
effect on the growth or viability of MCF7 cells at the applied dose [3]: no effect on the growth or viability; also recorded: does not inflict growth inhibitory or toxic effects
mean PMr colonies #seeded cells: 80,000 [4, 8]: 14
mean PMr colonies #seeded cells: 80,000 [4, 9]: 15.3
% PMr relative to DTr colonies [4, 9]: 3.0%
% PM resistant colonies relative to untreated control [4, 10]: 165%*
gRNA specific PM-r colonies (gRNA-scRNA) [4, 8]: 10.2
% PM resistant colonies relative to untreated control [4, 11]: 76%
mean DTr colonies #seeded cells: 40,000 [5]: 512.5
mean DTr colonies #seeded cells: 40,000 [6]: 201.5
% DT resistant colonies relative to untreated control [6, 10]: 100%
gRNA specific DT-r colonies (gRNA-scRNA) [6]: 201.5
% DT resistant colonies relative to untreated control [6, 11]: 100%
Mean DT resistant colonies (4 × 40.000 seeded cells) [6]: 0

SCR7
effect on the growth or viability of MCF7 cells at the applied dose [3]: does not inflict growth inhibitory or toxic effects
effect on the growth or viability of MCF7 cells at the applied dose ([3]; listed as Scr7): no effect on the growth or viability
mean PMr colonies #seeded cells: 80,000 [4, 8]: 13.3
mean PMr colonies #seeded cells: 80,000 [4, 9]: 25
% PMr relative to DTr colonies [4, 9]: 5.1%
increase of the number of PMr colonies compared to untreated control ([4]; compound 4 hrs before until 72 hr after transfection): approx. 2 fold
% PM resistant colonies relative to untreated control [4, 10]: 156%*
gRNA specific PM-r colonies (gRNA-scRNA) [4, 8]: 9.5
% PM resistant colonies relative to untreated control [4, 11]: 125%
mean DTr colonies #seeded cells: 40,000 [5]: 488.8
mean DTr colonies #seeded cells: 40,000 [6]: 205.3
% DT resistant colonies relative to untreated control [6, 10]: 102%
gRNA specific DT-r colonies (gRNA-scRNA) [6]: 205.3
% DT resistant colonies relative to untreated control [6, 11]: 95%*
Mean DT resistant colonies (4 × 40.000 seeded cells) [6]: 0

Reference: US20250250559A1, “METHOD TO ANALYZE AND OPTIMIZE GENE EDITING MODULES AND DELIVERY APPROACHES” (Hoffmann-La Roche Inc., priority 2016, published 2025)
